Tested on: Wistar type male rat
Assay: Activity to resist growth of ulcer (ethanol hydrochloric acid induced gastric injury)
Type: in vivo
Conditions: 30mg/kg orally, 1 hour before oral ethanol hydrochloric acid, ulcer index 1 hour later; for inhibition in vivo at 30 mg/kg: read-out: Ratio of inhibiting formation of ulcer (%)
Procedure: A Wistar type male rat (body weight 150 to 200 g) was fasted for 24 hours, then orally administered with a catechol compound according with the present invention and, on elapse of 1 hour thereafter, orally administered with ethanol hydrochloric acid (having 150 mM hydrochloric acid contained in 60% ethanol) at a rate of 0.5 ml/100 g of body weight.
After 1 hour following the oral administration of ethanol hydrochloric acid, the rat was sacrified with ether. The stomach was excited from the corpse, treated with formalin, and visually examined to measure lengths of injuries generated on the glanular part of the stomach. The total of injuries was reported as an ulcer index of the rat in question.
The term "ratio of inhibiting formation of ulcer (%)" as used in the table refers to a numerical value obtained by subtracting the ulcer index of a rat orally administered with a given catechol compound according with the present invention from the ulcer index of a rat not orally administered with catechol compound and multiplying the difference by 100.

Structure (SMILES)	inhibition in vivo at 30 mg/kg [%]	Ratio of inhibiting formation of ulcer (%)
CCCCCCCCCC(=O)CC(=O)C=Cc1ccc(O)c(O)c1 [Example 1, 1-(3,4-dihydroxyphenyl)-1-tetradecen-3,5-dione]	82.4	–
CCCCCCCCCC(=O)CC(=O)CCc1ccc(O)c(O)c1 [Example 2, 1-(3,4-dihydroxyphenyl)-3,5-tetradecane dione]	92.1	–
CCCCCCCCCC(O)CC(=O)CCc1ccc(O)c(O)c1 (stereo not drawn) [Example 4, 1-(3,4-hydroxyphenyl)-5-hydroxytetradecan-3-one]	–	84.4
CCCCCCCC(=O)CC(=O)C=Cc1ccc(O)c(O)c1 [Example 7, 1-(3,4-dihydroxyphenyl)-1-dodecen-3,5-dione]	85.7	–
CCCCCCCC(=O)CC(=O)CCc1ccc(O)c(O)c1 [Example 8, 1-(3,4-dihydroxyphenyl)-3,5-dodecane dione]	88.3	–
CCCCCC(=O)CC(=O)C=Cc1ccc(O)c(O)c1 [Example 9, 1-(3,4-dihydroxyphenyl)-1-decen-3,5-dione]	77.9	–
CCCCCC(=O)CC(=O)CCc1ccc(O)c(O)c1 [Example 10, 1-(3,4-dihydroxyphenyl)-3,5-decane dione]	84.6	–
CCCC(=O)CC(=O)C=Cc1ccc(O)c(O)c1 [Example 11, 1-(3,4-dihydroxyphenyl)-1-octen-3,5-dione]	58.7	–
CCCC(=O)CC(=O)CCc1ccc(O)c(O)c1 [Example 12, 1-(3,4-dihydroxyphenyl)-3,5-octadione]	81.8	–
